Experimental data reported in patent US6172185A, “Antimicrobial cationic peptide derivatives of bactenecin” (priority 1998, dated 2001).
Where a SMILES comes first, the peptide text is derived from it. Where no end group is shown, it is not given here.

Legend:
[1] = test system: E.coli UB1005; experiment: MIC, modified two-fold microtitre broth dilution; type: cell-based, Escherichia coli
Description: (§1) Bacterial strains for antimicrobial activity testing included Escherichia coli UB1005 and its antibiotic supersusceptible derivative DC2 (Richmond et al., Antimicrob. Agents Chemother. 10:215, 1976), Pseudomonas aeruginosa K799 and its antibiotic-supersusceptible derivative Z61 (Angus et al., Antimicrob. Agents Chemother. 21:299, 1982), Salmonella typhimurium 14028s and its defensin-supersusceptible derivative MS7953s (Fields et al., Science, 243:1059, 1989), Staphylococcus aureus ATCC25923 and a clinical isolate Staphylococcus aureus SAP1007. Other Gram-positive bacterial strains include Staphylococcus epidermidis (clinical isolate) and Enterococcus faecalis ATCC29212, Listeria monocytogenes, Corynebacterium xerosis, Streptococcus pneumoniae ATTC49619, Streptococcus pyogenes ATTC19615, Streptococcus mitis.
(§2) The minimal inhibitory concentration (MIC) of peptides was determined by a modified two-fold microtitre broth dilution method modified from that of Steinberg et al (Steinberg, Antimicrob. Agents Chemother. 41:1738, 1997). Using the classical method (Amsterdam, Antibiotics in Laboratory Medicine (Lorian, V., ed) pp. 72-78, 1991), higher concentrations of peptides tend to precipitate in the LB broth, thus the concentrations of peptides in the sequential wells are not accurate. Also the peptides stick to the most readily available (tissue-culture treated polystyrene) 96-well microtitre plates. Therefore the 2× series of dilutions was performed in Eppendoff tubes (polypropylene) before mixing with LB broth. Serial of two fold dilutions of peptides ranging from 640 μg/ml to 1.25 μg/ml were made in 0.2% BSA, 0.01% acetic acid buffer in the Eppendoff tubes. Ten μl of each concentration was added to each corresponding well of a 96-well microtiter plate (polypropylene cluster; Costar Corporation, Cambridge, Mass.). Bacteria were grown overnight and diluted 10-5 into fresh LB broth or Todd Hewitt broth for Streptococcus. LB medium contained 10 g/1l tryptone and 5 g/yeast extract, with no salt. Todd Hewitt contained 500 g/l beef heart infusion, 20 g/l bacto neopeptone, 2 g/l bacto dextrose, 2 g/l sodium chloride, 0.4 g/l disodium phosphate, 2.5 g/l sodium carbonate. One hundred […] containing about 10^4-10^5 CFU/ml of tested bacteria was added to each well. The plate was incubated at 37° C. overnight. The MIC was taken as the concentration at which greater than 90% of growth inhibition was observed.

[2] = test system: P.aeruginosa; experiment: MIC, modified two-fold microtitre broth dilution; type: cell-based, Pseudomonas aeruginosa
Description: as §1, §2

[3] = test system: S.typhimurium; experiment: MIC, modified two-fold microtitre broth dilution; type: cell-based, Salmonella typhimurium
Description: as §1, §2

[4] = test system: Staph. aureus; experiment: MIC, modified two-fold microtitre broth dilution; type: cell-based, Staphylococcus aureus
Description: as §1, §2

[5] = test system: Staph. epidermidis; experiment: MIC, modified two-fold microtitre broth dilution; type: cell-based, Staphylococcus epidermidis
Description: as §1, §2

[6] = test system: E.facaelis; experiment: MIC, modified two-fold microtitre broth dilution; type: cell-based, Enterococcus faecalis
Description: as §1, §2

[7] = test system: Listeria monocytogenes; experiment: MIC, modified two-fold microtitre broth dilution; type: cell-based
Description: as §1, §2

[8] = test system: C. xerosis; experiment: MIC, modified two-fold microtitre broth dilution; type: cell-based, Corynebacterium xerosis
Description: as §1, §2

[9] = test system: Strep. pyogenes; experiment: MIC, modified two-fold microtitre broth dilution; type: cell-based, Streptococcus pyogenes; conditions: for MIC Strep. pyogeness: Table IID, linear (Group 2): reduced forms of the peptides, Bac (Oxidized) as comparator
Description: as §1, §2

[10] = test system: Strep. mitis; experiment: MIC, modified two-fold microtitre broth dilution; type: cell-based, Streptococcus mitis; conditions: for MIC Strep. mitis: Table IID, linear (Group 2): reduced forms of the peptides, Bac (Oxidized) as comparator
Description: as §1, §2

[11] = test system: Strep. pneumoniae; experiment: MIC, modified two-fold microtitre broth dilution; type: cell-based, Streptococcus pneumoniae; conditions: for MIC Strep. pneumonia: Table IID, linear (Group 2): reduced forms of the peptides, Bac (Oxidized) as comparator; for MIC S. pneumoniae: Table IVB, non-linear hydrophobicity modification derivatives; for MIC S. pneumonia: Table IIIB, non-linear positive-charge modification derivatives
Description: as §1, §2

[12] = test system: Human Red Blood Cells
[13] = Table IIC, linear (Group 2): reduced forms of the peptides, Bac (Oxidized) as comparator
[14] = Table IVA, non-linear hydrophobicity modification derivatives
[15] = Table IID, linear (Group 2): reduced forms of the peptides, Bac (Oxidized) as comparator
[16] = Table IVB, non-linear hydrophobicity modification derivatives
[17] = table IIA, non-linear positive-charge modification derivatives
[18] = Table IIIB, non-linear positive-charge modification derivatives

Compound | MIC E.coli UB1005 [1, 13] | MIC P. aeruginosa [2, 13] | MIC S. typhimurium [3, 13] | MIC Staph. aureus [4, 15] | MIC Staph. epidermidis [5, 15] | MIC E.facaelis [6, 15] | MIC Listeria [7, 15] | MIC C. xerosis [8, 15] | MIC Strep. pyogeness [9] | MIC Strep. mitis [10] | MIC Strep. pneumonia [11] | Minimal Agglutinating Concentration, Oxidized Form [12] | Minimal Agglutinating Concentration, Reduced Form [12] | MIC E.coli UB1005 [1, 17] | MIC P. aeruginosa [2, 17] | MIC S. typhimurium [3, 17] | MIC Staph. aureus [4, 18] | MIC Staph. epidermidis [5, 18] | MIC E.facaelis [6, 18] | MIC Listeria [7, 18] | other results
RLCRIVPVIRVCR [Bac P] | 16 µg/mL | 32 µg/mL | 64 µg/mL | > 64 µg/mL | 16 µg/mL | 32 µg/mL | 4 µg/mL | 2 µg/mL | 32 µg/mL | 2 µg/mL | > 64 µg/mL | 64 µg/mL | 64 µg/mL | – | – | – | – | – | – | – | MIC E.coli UB1005 [1, 14]: 32 µg/mL; MIC P. aeruginosa [2, 14]: > 64 µg/mL; MIC S. typhimurium [3, 14]: > 64 µg/mL; MIC Staph. aureus [4, 16]: 64 µg/mL; MIC Staph. epidermidis [5, 16]: 64 µg/mL; MIC E.facaelis [6, 16]: > 64 µg/mL; MIC Listeria [7, 16]: 2 µg/mL; MIC C. xerosis [8, 16]: 8 µg/mL; MIC Strep. pyogenes [9, 16]: 64 µg/mL; MIC S. mitis [10, 16]: 4 µg/mL; MIC S. pneumoniae [11]: > 64 µg/mL
RLSRIVVIRVCR-NH2 [Bac S-NH2, RLSRIVVIRVCR-NH2] | – | – | – | – | – | – | – | – | – | – | – | > 64 µg/mL | – | – | – | – | – | – | – | – | –
RLCRIVWVIRVCR [Bac W] | > 64 µg/mL | > 64 µg/mL | 64 µg/mL | > 64 µg/mL | 32 µg/mL | 32 µg/mL | 2 µg/mL | 1 µg/mL | 16 µg/mL | 1 µg/mL | 32 µg/mL | 32 µg/mL | 4 µg/mL | – | – | – | – | – | – | – | MIC E.coli UB1005 [1, 14]: 8 µg/mL; MIC P. aeruginosa [2, 14]: 4 µg/mL; MIC S. typhimurium [3, 14]: 4 µg/mL; MIC Staph. aureus [4, 16]: 4 µg/mL; MIC Staph. epidermidis [5, 16]: 2 µg/mL; MIC E.facaelis [6, 16]: 8 µg/mL; MIC Listeria [7, 16]: 0.5 µg/mL; MIC C. xerosis [8, 16]: 1 µg/mL; MIC Strep. pyogenes [9, 16]: 2 µg/mL; MIC S. mitis [10, 16]: 1 µg/mL; MIC S. pneumoniae [11]: 16 µg/mL
CC[C@H](C)[C@@H]1NC(=O)[C@H](C(C)C)NC(=O)[C@H](C(C)C)NC(=O)[C@H]([C@@H](C)CC)NC(=O)[C@@H]2CCCN2C(=O)[C@@H](NC(=O)[C@H](CCCNC(=N)N)NC(=O)[C@@H](N)CCCNC(=N)N)CSSC[C@@H](C(=O)N[C@@H](CCCNC(=N)N)C(=O)O)NC(=O)[C@H](C(C)C)NC(=O)[C@H](CCCNC(=N)N)NC1=O [Bac R, P, RRCPIVVIRVCR] (HELM PEPTIDE1{R.R.C.P.I.V.V.I.R.V.C.R}$PEPTIDE1,PEPTIDE1,3:R3-11:R3$$$V2.0) | – | – | – | – | – | – | – | – | – | – | – | > 64 µg/mL | – | – | – | – | – | – | – | – | –
RLCPRVRIRVCR-NH2 (cysteine pairing not given here) [Bac 2R, P-NH2] | – | – | – | – | – | – | – | – | – | – | – | > 32 µg/mL | – | 4 µg/mL | 16 µg/mL | 32 µg/mL | > 32 µg/mL | 16 µg/mL | > 32 µg/mL | – | –
RICRIVVIRCIR-NH2 (cysteine pairing not given here) [Bac 2I-NH2] | – | – | – | – | – | – | – | – | – | – | – | 32 µg/mL | – | 4 µg/mL | 16 µg/mL | 8 µg/mL | 32 µg/mL | 8 µg/mL | > 32 µg/mL | – | –
RLARIVVIRVAR-NH2 [Bac 2A-NH2, RLARIVVIRVAR-NH2] | – | – | – | – | – | – | – | – | – | – | – | > 64 µg/mL | – | – | – | – | – | – | – | – | –
RRLCRIVVIRVCRR [Bac 2R] | 4 µg/mL | 16 µg/mL | 32 µg/mL | > 64 µg/mL | 4 µg/mL | 4 µg/mL | 0.5 µg/mL | 0.25 µg/mL | 16 µg/mL | 0.5 µg/mL | > 64 µg/mL | 64 µg/mL | 32 µg/mL | 2 µg/mL | 4 µg/mL | 4 µg/mL | 64 µg/mL | 8 µg/mL | 32 µg/mL | < 0.125 µg/mL | MIC against P. aeruginosa, times better than native bactenecin [2]: 2 X; MIC against S. typhimurium, times better than native bactenecin [3]: 2 X; MIC C. xerosis [8, 18]: 1 µg/mL; MIC Strep. pyogenes [9, 18]: 8 µg/mL; MIC S. mitis [10, 18]: 0.5 µg/mL; MIC S. pneumonia [11]: > 64 µg/mL
KKCPIVVIRVCK [Bac 3K, P] | > 64 µg/mL | > 64 µg/mL | > 64 µg/mL | > 64 µg/mL | > 64 µg/mL | > 64 µg/mL | 4 µg/mL | 4 µg/mL | 64 µg/mL | 0.25 µg/mL | > 64 µg/mL | > 64 µg/mL | 64 µg/mL | 16 µg/mL | > 64 µg/mL | 32 µg/mL | > 64 µg/mL | > 64 µg/mL | > 64 µg/mL | 8 µg/mL | MIC C. xerosis [8, 18]: 16 µg/mL; MIC Strep. pyogenes [9, 18]: > 64 µg/mL; MIC S. mitis [10, 18]: 2 µg/mL; MIC S. pneumonia [11]: > 64 µg/mL
RLSRIVVIRVSR-NH2 [Bac 2S-NH2, RLSRIVVIRVSR-NH2] | – | – | – | – | – | – | – | – | – | – | – | > 64 µg/mL | – | – | – | – | – | – | – | – | –
RRRLCPIVIRVCRR [Bac 3R, P, (V)] | 4 µg/mL | 32 µg/mL | 32 µg/mL | > 64 µg/mL | 8 µg/mL | 32 µg/mL | 1 µg/mL | 0.5 µg/mL | 8 µg/mL | 1 µg/mL | > 64 µg/mL | > 64 µg/mL | 32 µg/mL | 2 µg/mL | 8 µg/mL | 8 µg/mL | > 64 µg/mL | 16 µg/mL | > 64 µg/mL | 1 µg/mL | MIC C. xerosis [8, 18]: 4 µg/mL; MIC Strep. pyogenes [9, 18]: 4 µg/mL; MIC S. mitis [10, 18]: 1 µg/mL; MIC S. pneumonia [11]: > 64 µg/mL
RRRCPIVVIRVCRR [Bac 3R, P] | 8 µg/mL | > 64 µg/mL | > 64 µg/mL | > 64 µg/mL | 16 µg/mL | 64 µg/mL | 2 µg/mL | 0.5 µg/mL | 16 µg/mL | 0.5 µg/mL | > 64 µg/mL | 64 µg/mL | 16 µg/mL | 2 µg/mL | 8 µg/mL | 8 µg/mL | > 64 µg/mL | 16 µg/mL | 32 µg/mL | 0.5 µg/mL | MIC C. xerosis [8, 18]: 4 µg/mL; MIC Strep. pyogenes [9, 18]: 8 µg/mL; MIC S. mitis [10, 18]: 1 µg/mL; MIC S. pneumonia [11]: > 64 µg/mL
